Measured values: patent publication US11453652B2, “Di-macrocycles” (LUMIPHORE, INC., priority 2013, dated 2022)
{AmC3} = aminopropyl group

Assay: Gel electrophoresis mobility shift assay of metal cation complexation
Assay type: binding
Conditions: 20% polyacrylamide gel, 8M urea; incubated 55° C. 15 minutes, HEPES pH 7.5; compared with no metal cation
Method: For use in certain applications, such as acting as a bifunctional chelating agent to attach a radioisotope to a site-directing molecule, it is necessary that the chelator be able to coordinate to the metal ion of interest in a kinetically facile and thermodynamically stable manner. […] In this experiment, a conjugate of 12 with a small (18 base length) DNA oligomer, 15 was treated with a solution containing a metal cation. The electrophoretic mobility of the conjugate on a polyacrylamide gel was then compared with that of the conjugate which was not exposed to the solution of metal cation. […] The gel electrophoretic mobility of the DNA oligomer 14 that was not conjugated to 12, present in the solution of 15, was also compared with and without exposure to the metal cation solution.
C=control, no metal cations. Y, Eu, Tb, Zr, Th=yttrium(III), europium(III), terbium(III), zirconium(IV), and thorium(IV), respectively. Arrow indicates luminescent band observed under hand held ultraviolet lamp.
In particular, a solution of DNA oligomer (3 μL, 33 μM, all concentrations final) was mixed with a solution of metal cation (2 μL, 625 μM) or an equal volume of water, additional water (2.5 μL) and a buffer solution (2.5 μL, 50 mM HEPES, pH 7.5). […]

| Substance | electrophoretic mobility following treatment with the metal cation solution |
| --- | --- |
| Conjugate 15: conjugate of di-macrocycle 12 with 18-base DNA oligonucleotide 14 (DNA AAGGTCATCCATGACAAC; DNA, backbone and methylation of C not given here; di-macrocycle 12 conjugated) | migrates more slowly |
| unmodified oligonucleotide: DNA 18-base oligonucleotide 5′-AAGGTCATCCATGACAAC-3′ with 5′-aminopropyl group, not conjugated to 12 (DNA, 5' {AmC3}, backbone and methylation of C not given here) | unaffected |
